pIC50, pKd: −log10 of the molar value.

This note sets out measurements from patent US5767088A, “Tachykinin antagonists” (Warner-Lambert Company, priority 1996, dated 1998).

The target of one assay is T1, NK3 receptor (Homo sapiens, UniProt P29371).
T1 construct: host or cells: Chinese hamster ovary cells (membranes)
T1 sequence (P29371 1-465): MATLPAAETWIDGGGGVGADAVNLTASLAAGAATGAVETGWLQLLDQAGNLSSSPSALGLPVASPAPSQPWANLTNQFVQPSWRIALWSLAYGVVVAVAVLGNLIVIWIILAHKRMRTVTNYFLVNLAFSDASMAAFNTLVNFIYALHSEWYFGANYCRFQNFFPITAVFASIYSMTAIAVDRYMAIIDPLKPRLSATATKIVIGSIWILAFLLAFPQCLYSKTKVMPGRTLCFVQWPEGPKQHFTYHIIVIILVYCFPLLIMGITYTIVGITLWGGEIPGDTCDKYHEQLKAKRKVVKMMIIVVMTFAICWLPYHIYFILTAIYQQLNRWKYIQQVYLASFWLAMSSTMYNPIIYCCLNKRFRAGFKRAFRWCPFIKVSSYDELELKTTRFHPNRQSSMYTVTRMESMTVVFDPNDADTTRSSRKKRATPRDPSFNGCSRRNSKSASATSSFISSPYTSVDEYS
Nature of the assay: NK3 receptor binding assay, [125I]-[MePhe7]neurokinin B, Chinese hamster ovary cell membranes. As to conditions: competition with [125I]-[MePhe7]neurokinin B 40-100 pM, 90 minutes at 22° C., CHO cell membranes.

For assay [1], the target named is T2, NK3 (Cavia porcellus, UniProt P30098).
T2 sequence (P30098 1-440): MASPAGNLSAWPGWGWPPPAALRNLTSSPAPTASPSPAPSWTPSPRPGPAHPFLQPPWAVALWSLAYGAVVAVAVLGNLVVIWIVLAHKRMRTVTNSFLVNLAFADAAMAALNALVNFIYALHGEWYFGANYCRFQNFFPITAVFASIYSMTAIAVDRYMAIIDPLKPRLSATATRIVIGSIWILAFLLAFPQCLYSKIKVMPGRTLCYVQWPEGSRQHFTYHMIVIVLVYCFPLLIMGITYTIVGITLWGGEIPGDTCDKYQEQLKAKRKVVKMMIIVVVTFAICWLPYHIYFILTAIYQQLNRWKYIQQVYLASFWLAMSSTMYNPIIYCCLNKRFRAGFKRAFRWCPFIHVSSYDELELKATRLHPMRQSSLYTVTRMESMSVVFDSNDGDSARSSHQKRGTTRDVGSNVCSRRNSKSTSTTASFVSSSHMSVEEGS
Description: guinea pig medial habenula assay (block of senktide-induced increases in firing rate, brain slice). As to conditions: NK3 antagonist activity; mean equilibrium constant against senktide; brain slice in vitro; read-out: Guinea Pig Medial Habenula (Ke). Also noted: guinea pig medial habenula neurones in a brain slice preparation in vitro; from tissue; host or cells: guinea pig medial habenula brain slice. The assay is classed as cell-based.

Assay [2] concerns the target T2, NK3. Nature of the assay: guinea pig ileum assay (Schild analysis of contractile responses). The assay is classed as cell-based. Also on record: in vitro peripheral guinea pig ileum assay; from tissue; host or cells: guinea pig ileum (organ bath). As to conditions: NK3 antagonist activity; antagonist dissociation constant by Schild analysis.

`CC(C)(C)OC(=O)N[C@@H](Cc1ccccc1)C(=O)NC(C)(Cc1ccccc1)C(=O)NCCCc1ccc(O)cc1` (mixture of isomers) [Example 4, DL-Phenylalaninamide, N-[(1,1-dimethylethoxy)carbonyl]-L-phenylalanyl-N-[3-(4-hydroxyphenyl)propyl]-α-methyl-] gave a pIC50 on NK3 receptor of 7.06.
As to `CC(C)CCNC(=O)C(C)(Cc1ccccc1)NC(=O)[C@H](Cc1ccccc1)NC(=O)OC(C)(C)C` (mixture of isomers) [Example 5, DL-Phenylalaninamide, N-[(1,1-dimethylethoxy)carbonyl]-L-phenylalanyl-α-methyl-N-3-methylbutyl-], the pIC50 on NK3 receptor is 6.91. The pIC50 values of the last two compounds are within 0.2 log units of each other.
Still for that read-out and setting: the result for `CC(C)(C)OC(=O)N[C@@H](Cc1ccccc1)C(=O)NC(C)(Cc1ccccc1)C(=O)NCCCCCc1ccccc1` (mixture of isomers) [Example 6, DL-Phenylalaninamide, N-[(1,1-dimethylethoxy)carbonyl]-L-phenylalanyl-α-methyl-N-(5-phenylpentyl)-] reads 7.11; that for `CC(C)(C)OC(=O)N[C@@H](Cc1ccccc1)C(=O)NC(C)(Cc1ccccc1)C(=O)NC1CCCC1` (mixture of isomers) [Example 7, DL-Phenylalaninamide, N-[(1,1-dimethylethoxy)carbonyl]-L-phenylalanyl-N-cyclopentyl-α-methyl-], 6.25.
`CC(=O)NCCNC(=O)C(C)(Cc1ccccc1)NC(=O)[C@H](Cc1ccccc1)NC(=O)OC(C)(C)C` (mixture of isomers) [Example 10, DL-Phenylalaninamide, N-[(1,1-dimethylethoxy)carbonyl]-L-phenylalanyl-N-[2-(acetylamino)ethyl]-α-methyl-] had a pIC50 at NK3 receptor of 6.74.
The same measure, in the same setting: the result for `CC(C)(C)OC(=O)N[C@@H](Cc1ccccc1)C(=O)NC(C)(Cc1ccccc1)C(=O)NCCC1CCCC1` (mixture of isomers) [Example 11, DL-Phenylalaninamide, N-[(1,1-dimethylethoxy)carbonyl]-L-phenylalanyl-N-(2-cyclopentylethyl)-α-methyl-] reads 6.89.
On the same count and under the same terms, the value for `CC(C)(C)OC(=O)N[C@@H](Cc1ccccc1)C(=O)NC(C)(Cc1ccccc1)C(=O)NCCc1ccc(Cl)cc1` (mixture of isomers) [Example 12, DL-Phenylalaninamide, N-[(1,1-dimethylethoxy)carbonyl]-L-phenylalanyl-N-[2-(4-chlorophenyl)ethyl]-α-methyl-] was 6.85.
For the compound `CC(Cc1ccccc1)(NC(=O)[C@H](Cc1ccccc1)NC(=O)OCC1CCCCC1)C(N)=O` (mixture of isomers) [Example 16, DL-Phenylalaninamide, N-[(cyclohexylmethoxy)carbonyl]-L-phenylalanyl-α-methyl-], at NK3 receptor, the pIC50 was 5.91.
On NK3 receptor, `CC(C)COC(=O)N[C@@H](Cc1ccccc1)C(=O)NC(C)(Cc1ccccc1)C(N)=O` (mixture of isomers) [Example 17, DL-Phenylalaninamide, N-[(2-methylpropoxy)carbonyl]-L-phenylalanyl-α-methyl-] gave a pIC50 of 5.88.
On to `CC(Cc1ccccc1)(NC(=O)[C@H](Cc1ccccc1)NC(=O)OCc1ccc(Cl)c(Cl)c1)C(N)=O` (mixture of isomers) [Example 18, DL-Phenylalaninamide, N-[[(3,4-dichlorophenyl)-methoxy]carbonyl]-L-phenylalanyl-α-methyl-], for which the negative logarithm of the IC50 (pIC50) on NK3 receptor is 5.82.
In the case of `CC(C)(C)OC(=O)N[C@@H](Cc1ccccc1)C(=O)NC(C)(Cc1cccc(Cl)c1)C(N)=O` (mixture of isomers) [Example 20, DL-Phenylalaninamide, N-[(1,1-dimethylethoxy)carbonyl]-L-phenylalanyl-3-chloro-α-methyl-], the pIC50 on NK3 receptor is 5.87.
As to `CC(C)(C)OC(=O)NC(Cc1cccc(Cl)c1)C(=O)N[C@](C)(Cc1ccccc1)C(N)=O` (mixture of isomers) [Example 21, D-Phenylalaninamide, 3-chloro-N-[(1,1-dimethylethoxy)-carbonyl]-DL-phenylalanyl-α-methyl-], the negative logarithm of the IC50 (pIC50) on NK3 receptor was 6.04.
`CC(C)(C)OC(=O)N[C@@H](Cc1ccccc1)C(=O)NC(C)(Cc1ccccc1)C(=O)NCC1CCC(C(=O)O)CC1` (mixture of isomers) [Example 13, DL-Phenylalaninamide, N-[(1,1-dimethylethoxy)carbonyl]-L-phenylalanyl-N-[(4-carboxycyclohexyl)methyl]-α-methyl-, trans-] gave a pIC50 at NK3 receptor of 6.14. This pIC50 and that of the compound before are within 0.2 log units of each other.
As to `CC(C)(C)OC(=O)N[C@@H](Cc1ccccc1)C(=O)N[C@](C)(Cc1ccccc1)C(=O)NCCCCCCCCC(N)=O` [Example 2, D-Phenylalaninamide, N-[(1,1-dimethylethoxy)carbonyl]-L-phenylalanyl-N-(9-amino-9-oxononyl)-α-methyl-], the pKd on NK3 [1] was 7.60. The compound also came in with a Kb on NK3 [2] of 10 nM.
`COc1ccc(CCCCNC(=O)[C@@](C)(Cc2ccccc2)NC(=O)[C@H](Cc2ccccc2)NC(=O)OC(C)(C)C)cc1` [Example 3] had a negative logarithm of the IC50 (pIC50) at NK3 receptor of 7.08.
`CC(C)(C)OC(=O)NC(CNC(Cc1ccccc1)C(N)=O)Cc1ccccc1` (stereo not drawn) [Example 22, Carbamic acid, [2-[[2-amino-2-oxo-1-(phenylmethyl)-ethyl]amino]-1-(phenylmethyl)ethyl]-, 1,1-dimethylethyl ester]: on NK3 receptor, the pIC50 is 5.36.
On NK3 receptor, “DL-Phenylalaninamide, N-[[(octahydro-2-naphthalenyl)-oxy]carbonyl]-L-phenylalanyl-α-methyl [Example 19]” showed a pIC50 of 5.51. The pIC50 values of the last two compounds are within 0.2 log units of each other.
